This note sets out measurements from ChEMBL document CHEMBL3804805, “Cathepsin B Inhibitors: Combining Dipeptide Nitriles with an Occluding Loop Recognition Element by Click Chemistry” (ACS Med Chem Lett, 2016).

Test [1] deals with T1, Cathepsin B (Homo sapiens, UniProt P07858). Briefly: Inhibition of human liver cathepsin B using Cbz-Arg-Arg-pNA as substrate at pH 6 incubated for 30 mins measured for 20 mins by photometrical analysis.
The target in test [2] is Cathepsin S (Homo sapiens, UniProt P25774). Description: Inhibition of human recombinant cathepsin S using Cbz-Phe-Arg-AMC as substrate incubated for 60 mins measured for 20 mins by spectrofluorometrical analysis.
The target of test [3] is Procathepsin L (Homo sapiens, UniProt P07711). Briefly: Inhibition of human liver cathepsin L using Cbz-Phe-Arg-pNA as substrate incubated for 30 mins measured for 20 mins by photometrical analysis.
Test [4] has as its target T2, Cathepsin K (Homo sapiens, UniProt P43235).
T2 sequence (P43235 whole entry): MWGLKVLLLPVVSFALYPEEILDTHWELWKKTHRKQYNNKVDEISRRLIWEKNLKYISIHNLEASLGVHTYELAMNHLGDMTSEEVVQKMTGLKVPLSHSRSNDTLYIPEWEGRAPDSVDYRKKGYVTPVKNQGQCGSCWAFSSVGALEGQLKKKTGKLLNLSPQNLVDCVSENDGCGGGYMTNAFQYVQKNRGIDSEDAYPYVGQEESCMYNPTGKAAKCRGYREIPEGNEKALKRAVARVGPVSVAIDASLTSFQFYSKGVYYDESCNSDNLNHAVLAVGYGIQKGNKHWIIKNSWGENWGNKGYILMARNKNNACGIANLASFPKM
Description: Inhibition of human recombinant cathepsin K using Cbz-Leu-Arg-AMC as substrate incubated for 30 mins measured for 20 mins by spectrofluorometrical analysis.

The target of test [5] is T1, Cathepsin B. Description: Inhibition of human liver cathepsin B using Cbz-Arg-Arg-pNA as substrate at pH 4.5 incubated for 30 mins measured for 20 mins by photometrical analysis.
Test [6] has as its target T1, Cathepsin B. Briefly: Inhibition of human liver cathepsin B using Abz-Gly-Ile-Val-Arg-Ala-Lys(Dnp)-OH as substrate at pH 4.5 incubated for 30 mins measured for 10 mins by […].
The target of test [7] is T1, Cathepsin B. Description: Inhibition of human cathepsin B.

Chain of Procathepsin L (P07711 whole entry): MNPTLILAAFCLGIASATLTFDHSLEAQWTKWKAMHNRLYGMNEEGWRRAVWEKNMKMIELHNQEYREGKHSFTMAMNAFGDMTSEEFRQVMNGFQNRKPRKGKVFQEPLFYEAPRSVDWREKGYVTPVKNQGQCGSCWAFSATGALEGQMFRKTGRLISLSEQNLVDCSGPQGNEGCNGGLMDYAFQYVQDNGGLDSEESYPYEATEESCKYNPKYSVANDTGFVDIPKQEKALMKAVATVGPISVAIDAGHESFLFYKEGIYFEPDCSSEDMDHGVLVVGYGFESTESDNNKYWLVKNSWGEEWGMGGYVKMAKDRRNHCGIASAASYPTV
Chain of Cathepsin S (P25774 whole entry): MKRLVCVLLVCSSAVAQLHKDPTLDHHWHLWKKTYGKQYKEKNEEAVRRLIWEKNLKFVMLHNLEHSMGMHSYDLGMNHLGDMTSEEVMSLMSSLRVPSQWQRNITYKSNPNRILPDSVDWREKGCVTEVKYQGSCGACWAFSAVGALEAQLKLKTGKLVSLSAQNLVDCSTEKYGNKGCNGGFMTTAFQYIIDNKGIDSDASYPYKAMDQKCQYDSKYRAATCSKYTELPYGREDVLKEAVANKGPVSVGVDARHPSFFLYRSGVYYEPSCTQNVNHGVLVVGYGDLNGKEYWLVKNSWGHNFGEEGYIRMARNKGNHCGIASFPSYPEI

The molecule `CC(C)(C)OC(=O)N[C@@H](CC1CC1)C(=O)NCC#N` returned a Ki in test [1] greater than 0.33 µM.

For `CC[C@H](NC(=O)OC(C)(C)C)C(=O)NCC#N`, the Ki in test [1] is greater than 0.33 µM.

As for `CC(C)(C)OC(=O)N[C@@H](Cc1cccc(-c2ccccc2)c1)C(=O)NCC#N`, the Ki in test [1] is 5.35 µM.

With `CC(C)C[C@H](NC(=O)OCc1ccccc1)C(=O)NCC#N`, the Ki in test [1] is 32 µM.

Turning to `N#C[C@H](CCOCc1cn(CC(=O)O)nn1)NC(=O)[C@H](Cc1ccccc1)NC(=O)OCc1ccccc1`, the Ki in test [1] was 101 µM; in test [2], 1 µM; in test [3], 2.16 µM; in test [4], 0.58 µM.

`CC(C)(C)OC(=O)N[C@@H](Cc1ccc(Br)cc1)C(=O)NCC#N` yielded a Ki in test [1] greater than 0.33 µM.

In the case of `N#C[C@H](Cc1cn(CCC(=O)O)nn1)NC(=O)[C@H](Cc1cccc(Br)c1)NC(=O)c1ccc(-c2ccccc2)cc1`, the Ki amounted to 1.8 µM in test [2], 6.98 µM in test [3] and 0.226 µM in test [4].

In test [1], `CCCC[C@H](NC(=O)OC(C)(C)C)C(=O)NCC#N` returned a Ki greater than 0.33 µM.

Turning to `CC(C)(C)OC(=O)N[C@@H](Cc1ccc(O)cc1)C(=O)NCC#N`, the inhibition constant Ki in test [1] was greater than 0.33 µM.

`C[C@@H](C#N)N(C)C(=O)[C@H](Cc1ccccc1)NC(=O)OC(C)(C)C`: the Ki in test [1] was greater than 0.33 µM.

In test [1], `CC(C)C[C@H](NC(=O)OC(C)(C)C)C(=O)NCC#N` showed a Ki of 94 µM.

`C[C@@H](C#N)NC(=O)[C@H](Cc1ccccc1)NC(=O)OCc1ccccc1`: the inhibition constant (Ki) in test [1] was greater than 0.33 µM.

For `CC(C)(C)OC(=O)N1CCC[C@H]1C(=O)NCC#N`, the Ki in test [1] was greater than 0.33 µM.

In turn, `CCC(C)[C@H](NC(=O)OC(C)(C)C)C(=O)NCC#N` (some centres not stated) returned a Ki in test [1] greater than 0.33 µM.

As to `N#CCNC(=O)CNC(=O)OCc1ccccc1`, the Ki in test [1] was greater than 0.33 µM.

In the case of `N#CCNC(=O)[C@H](Cc1ccc(O)cc1)NC(=O)OCc1ccccc1`, the Ki in test [1] was greater than 0.33 µM.

Take `CC(C)(C)OC(=O)N[C@@H](Cc1cccs1)C(=O)NCC#N`: the Ki in test [1] is greater than 0.33 µM.

Turning to `CC(C)(C)OC(=O)N[C@@H](Cc1ccccc1)C(=O)NCC#N`, the Ki in test [1] was found to be 37 µM.

Turning to `CC(C)(C)OC(=O)N[C@@H](Cc1ccc(F)cc1)C(=O)NCC#N`, the Ki in test [1] was greater than 0.33 µM.

As for `N#CCNC(=O)[C@@H](N)Cc1ccccc1`, the Ki in test [1] is greater than 0.33 µM.

For the molecule `CSCC[C@@H](C#N)NC(=O)[C@H](CC1CCCCC1)NC(=O)OC(C)(C)C`, in test [1], the Ki was greater than 0.33 µM.

On to `N#CCNC(=O)[C@H](Cc1ccc2ccccc2c1)NC(=O)c1ccc(-c2ccccc2)cc1`, for which the Ki in test [1] was determined as 0.126 µM; in test [2], 0.18 µM; in test [3], 4.3 µM; in test [4] it was 4.5 µM.

In test [1], `CC(C)(C)OC(=O)N[C@@H](Cc1cccc(Br)c1)C(=O)NCC#N` yielded a Ki of 5.17 µM.

As for `CSCC[C@@H](C#N)NC(=O)[C@H](CC(C)C)NC(=O)c1ccc(-c2ccccc2)cc1`, the affinity in test [1] corresponds to a Ki of 0.33 µM.

For `CSCC[C@@H](C#N)NC(=O)[C@H](CC(C)C)NC(=O)OC(C)(C)C`, the Ki in test [1] is greater than 0.33 µM.

`N#CCNC(=O)C1(NC(=O)c2ccc(-c3noc(-c4cccs4)n3)cc2)CCCCC1` yielded a Ki in test [1] greater than 0.33 µM.

In the case of `N#C[C@H](COCc1cn(CC(=O)O)nn1)NC(=O)[C@H](Cc1ccccc1)NC(=O)OCc1ccccc1`, the Ki in test [1] was 24 µM; in test [2] it was 4.48 µM; in test [3], 1.05 µM; in test [4], 0.31 µM.

On to `CC(=O)N[C@@H](Cc1ccccc1)C(=O)NCC#N`, for which, in test [1], the Ki is greater than 0.33 µM.

Regarding `CC(C)(C)OC(=O)N[C@@H](Cc1ccc2ccccc2c1)C(=O)NCC#N`, the Ki in test [1] stood at 3.46 µM.

Molecule `CSCC[C@@H](C#N)NC(=O)C(CC(C)C)NC(=O)c1ccc(-c2ccccc2)cc1` (some centres not stated) gave a Ki in test [1] greater than 0.33 µM.

Consider `N#CCNC(=O)[C@H](CC1CCCCC1)NC(=O)c1ccc(-c2ccccc2)cc1`, for which, in test [1], the Ki was greater than 0.33 µM.

Consider `CCC[C@H](NC(=O)OC(C)(C)C)C(=O)NCC#N`, for which, in test [1], the Ki is greater than 0.33 µM.

In the case of `CN(CC#N)C(=O)[C@H](Cc1ccccc1)NC(=O)OCc1ccccc1`, the Ki in test [1] was greater than 0.33 µM.

In the case of `N#C[C@H](COCc1cn(CCC(=O)O)nn1)NC(=O)[C@H](Cc1ccccc1)NC(=O)OCc1ccccc1`, the Ki in test [1] is 33 µM; in test [2], 2.25 µM; in test [3], 1.27 µM; in test [4], 0.37 µM.

Regarding `N#CCNC(=O)[C@H](CC1CCCCC1)NC(=O)c1ccc(-c2noc(-c3cccs3)n2)cc1`, the Ki in test [1] was greater than 0.33 µM.

As for `CC(C)(C)OC(=O)N[C@H](C(=O)NCC#N)c1ccccc1`, the Ki in test [1] was greater than 0.33 µM.

Turning to `CC(C)(C)OC(=O)N[C@@H](Cc1ccccc1Br)C(=O)NCC#N`, the Ki in test [1] is greater than 0.33 µM.

In test [1], `CC(C)(C)OC(=O)NCC(=O)NCC#N` registered a Ki greater than 0.33 µM.

In test [1], `CC(C)(C)OC(=O)N[C@@H](Cc1c[nH]c2ccccc12)C(=O)NCC#N` returned a Ki greater than 0.33 µM.

`N#CCNC(=O)[C@H](Cc1ccccc1)NC(=O)OCc1ccccc1` returned a Ki in test [1] greater than 0.33 µM.

As to `N#C[C@H](COCc1cn(CC(=O)O)nn1)NC(=O)[C@H](Cc1cccc(Br)c1)NC(=O)c1ccc(-c2ccccc2)cc1`, the Ki in test [1] was found to be 0.0413 µM; in test [5], 0.0273 µM; in test [6] it was 0.0192 µM; in test [2] it was 0.352 µM; in test [3], 6.3 µM; in test [4], 0.335 µM.

Consider `N#CCNC(=O)[C@H](Cc1ccccc1)NC(=O)c1ccc(-c2ccccc2)cc1`, for which, in test [1], the affinity corresponds to a Ki of 3.92 µM.

Molecule `CN(CC#N)C(=O)[C@H](Cc1ccccc1)NC(=O)OC(C)(C)C` showed a Ki in test [1] greater than 0.33 µM.

In the case of `CSCC[C@H](NC(=O)OC(C)(C)C)C(=O)NCC#N`, the Ki in test [1] was greater than 0.33 µM.

`COC(=O)Cn1cc(COC[C@@H](C#N)NC(=O)[C@H](Cc2cccc(Br)c2)NC(=O)c2ccc(-c3ccccc3)cc2)nn1`: the Ki in test [1] worked out at 0.026 µM; in test [5], 0.136 µM; in test [6], 0.131 µM; in test [2], 0.186 µM; in test [3], 0.431 µM; in test [4] it was 0.0676 µM.

On to `N#C[C@H](CCOCc1cn(CCC(=O)O)nn1)NC(=O)[C@H](Cc1ccccc1)NC(=O)OCc1ccccc1`, for which the Ki was found to be 196 µM in test [1], 0.49 µM in test [2], 1.92 µM in test [3] and 0.37 µM in test [4].

In test [1], `CC(C)(C)OC(=O)N[C@H](Cc1ccccc1)C(=O)NCC#N` yielded a Ki greater than 0.33 µM.

In the case of `CC(C)(C)OC(=O)N[C@@H](Cc1ccco1)C(=O)NCC#N`, in test [1], the Ki is greater than 0.33 µM.

In test [1], `CC(C)(C)OC(=O)N[C@@H](CCc1ccccc1)C(=O)NCC#N` came in with a Ki greater than 0.33 µM.

`CC(C)C[C@@H](C#N)NC(=O)[C@H](C)NC(=O)CNC(=O)OCc1ccccc1` came in with a Ki in test [1] greater than 0.33 µM.

The molecule `CC(C)(C)OC(=O)N[C@@H](CC1CCCCC1)C(=O)NCC#N` returned a Ki in test [1] greater than 0.33 µM.

As for `CC(C)C[C@H](NC(=O)Nc1ccc(-c2noc(-c3cccs3)n2)cc1)C(=O)NCC#N`, the Ki in test [1] was greater than 0.33 µM.

In the case of `CC(C)[C@H](NC(=O)OC(C)(C)C)C(=O)NCC#N`, the Ki in test [1] is greater than 0.33 µM.

Consider `CC(C)C[C@H](NC(=O)c1ccc(-c2ccccc2)cc1)C(=O)NCC#N`, for which the Ki in test [7] was determined as 1.79 µM.

For the molecule `CC(C)(C)OC(=O)N[C@@H](Cc1ccc(-c2ccccc2)cc1)C(=O)NCC#N`, the inhibitory constant (Ki) in test [1] was greater than 0.33 µM.

In test [1], `CC(C)C[C@H](NC(=O)c1ccc(-c2noc(-c3cccs3)n2)cc1)C(=O)NCC#N` registered a Ki greater than 0.33 µM.

Take `N#CCNC(=O)[C@H](Cc1cccc(Br)c1)NC(=O)c1ccc(-c2ccccc2)cc1`: the Ki in test [1] stood at 0.12 µM; in test [5], 0.205 µM; in test [6], 0.22 µM; in test [2], 0.178 µM; in test [3] it was 0.609 µM; in test [4] it was 0.93 µM.

Consider `CC(C)(C)OC(=O)N[C@@H](COCc1ccccc1)C(=O)NCC#N`, for which the Ki in test [1] was greater than 0.33 µM.

In test [1], `COc1ccc(C[C@H](NC(=O)OCc2ccccc2)C(=O)NCC#N)cc1` registered a Ki greater than 0.33 µM.

In the case of `CC(C)(C)OC(=O)N[C@@H](Cc1cccc2ccccc12)C(=O)NCC#N`, the inhibitory constant (Ki) in test [1] was greater than 0.33 µM.

Molecule `N#CCNC(=O)[C@H](Cc1ccccc1)NC(=O)c1ccccc1` showed an inhibition constant Ki in test [1] greater than 0.33 µM.

Consider `CSCC[C@@H](C#N)NC(=O)[C@H](Cc1ccccc1)NC(=O)OC(C)(C)C`, for which the Ki in test [1] was greater than 0.33 µM.

In test [1], `CC(C)(C)OC(=O)N[C@@H](Cc1ccccc1)C(=O)N[C@H](C#N)CC#N` returned a Ki greater than 0.33 µM.

For the molecule `C[C@H](NC(=O)OC(C)(C)C)C(=O)NCC#N`, the Ki in test [1] is greater than 0.33 µM.

In the case of `N#C[C@H](Cc1cn(CC(=O)O)nn1)NC(=O)[C@H](Cc1cccc(Br)c1)NC(=O)c1ccc(-c2ccccc2)cc1`, the Ki worked out at 11.2 µM in test [1]; 0.707 µM in test [5]; 0.368 µM in test [6]; 4.23 µM in test [2]; 11.7 µM in test [3]; 0.535 µM in test [4].

For the molecule `N#CCNC(=O)C1(NC(=O)OCc2ccccc2)CCCCC1`, the Ki in test [1] was greater than 0.33 µM.

`N#CCNC(=O)[C@H](Cc1cccc(-c2ccccc2)c1)NC(=O)c1ccc(-c2ccccc2)cc1`: the Ki in test [1] is 1.23 µM; in test [2], 2.66 µM; in test [3], 0.707 µM; in test [4], 0.0245 µM.
